Measurements published in ChEMBL document CHEMBL4507264, “Data for DCP probe BAY-7598” (2021).

Legend:
[1] = molecular target: 5-hydroxytryptamine receptor 2C (Homo sapiens) (UniProt P28335); details: Compound concentration 10.0 uM
[2] = molecular target: Ribosomal protein S6 kinase alpha-4 (Homo sapiens) (UniProt O75676); details: Compound concentration 1000.0 nM
[3] = molecular target: Serine/threonine-protein kinase Nek7 (Homo sapiens) (UniProt Q8TDX7); details: Compound concentration 1000.0 nM
[4] = molecular target: Serine/threonine-protein kinase 38 (Homo sapiens) (UniProt Q15208); details: Compound concentration 1000.0 nM
[5] = molecular target: Serine/threonine-protein kinase MARK1 (Homo sapiens) (UniProt Q9P0L2); details: Compound concentration 1000.0 nM
[6] = molecular target: Myosin-IIIb (Homo sapiens) (UniProt Q8WXR4); details: Compound concentration 1000.0 nM
[7] = molecular target: T1, Muscarinic acetylcholine receptor M1 (Homo sapiens) (UniProt P11229); details: Compound concentration 10.0 uM
T1 sequence (whole entry): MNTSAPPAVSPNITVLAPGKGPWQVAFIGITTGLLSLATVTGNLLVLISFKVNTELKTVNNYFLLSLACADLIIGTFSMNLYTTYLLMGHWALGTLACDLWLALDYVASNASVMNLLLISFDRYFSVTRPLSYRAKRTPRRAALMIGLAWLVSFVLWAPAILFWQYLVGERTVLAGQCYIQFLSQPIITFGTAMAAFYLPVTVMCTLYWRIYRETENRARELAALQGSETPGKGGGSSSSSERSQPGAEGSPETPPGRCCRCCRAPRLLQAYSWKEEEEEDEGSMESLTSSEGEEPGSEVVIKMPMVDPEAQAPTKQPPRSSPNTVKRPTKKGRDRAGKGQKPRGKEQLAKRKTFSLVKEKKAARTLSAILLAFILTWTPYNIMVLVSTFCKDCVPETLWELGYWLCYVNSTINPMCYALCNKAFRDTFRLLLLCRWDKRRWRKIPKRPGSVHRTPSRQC

[8] = molecular target: Interferon-induced, double-stranded RNA-activated protein kinase (Homo sapiens) (UniProt P19525); details: Compound concentration 1000.0 nM
[9] = molecular target: Ephrin type-B receptor 1 (Homo sapiens) (UniProt P54762); details: Compound concentration 1000.0 nM
[10] = molecular target: Serine/threonine-protein kinase Chk2 (Homo sapiens) (UniProt O96017); details: Compound concentration 1000.0 nM
[11] = molecular target: Cyclin-dependent kinase 5 (Homo sapiens) (UniProt Q00535); details: Compound concentration 1000.0 nM
[12] = molecular target: Mitogen-activated protein kinase kinase kinase 7 (Homo sapiens) (UniProt O43318); details: Compound concentration 1000.0 nM
[13] = molecular target: Tyrosine-protein kinase JAK1 (Homo sapiens) (UniProt P23458); details: Compound concentration 1000.0 nM
[14] = molecular target: Ephrin type-B receptor 4 (Homo sapiens) (UniProt P54760); details: Compound concentration 1000.0 nM
Sequence of Ephrin type-B receptor 4 (Homo sapiens) (P54760 whole entry): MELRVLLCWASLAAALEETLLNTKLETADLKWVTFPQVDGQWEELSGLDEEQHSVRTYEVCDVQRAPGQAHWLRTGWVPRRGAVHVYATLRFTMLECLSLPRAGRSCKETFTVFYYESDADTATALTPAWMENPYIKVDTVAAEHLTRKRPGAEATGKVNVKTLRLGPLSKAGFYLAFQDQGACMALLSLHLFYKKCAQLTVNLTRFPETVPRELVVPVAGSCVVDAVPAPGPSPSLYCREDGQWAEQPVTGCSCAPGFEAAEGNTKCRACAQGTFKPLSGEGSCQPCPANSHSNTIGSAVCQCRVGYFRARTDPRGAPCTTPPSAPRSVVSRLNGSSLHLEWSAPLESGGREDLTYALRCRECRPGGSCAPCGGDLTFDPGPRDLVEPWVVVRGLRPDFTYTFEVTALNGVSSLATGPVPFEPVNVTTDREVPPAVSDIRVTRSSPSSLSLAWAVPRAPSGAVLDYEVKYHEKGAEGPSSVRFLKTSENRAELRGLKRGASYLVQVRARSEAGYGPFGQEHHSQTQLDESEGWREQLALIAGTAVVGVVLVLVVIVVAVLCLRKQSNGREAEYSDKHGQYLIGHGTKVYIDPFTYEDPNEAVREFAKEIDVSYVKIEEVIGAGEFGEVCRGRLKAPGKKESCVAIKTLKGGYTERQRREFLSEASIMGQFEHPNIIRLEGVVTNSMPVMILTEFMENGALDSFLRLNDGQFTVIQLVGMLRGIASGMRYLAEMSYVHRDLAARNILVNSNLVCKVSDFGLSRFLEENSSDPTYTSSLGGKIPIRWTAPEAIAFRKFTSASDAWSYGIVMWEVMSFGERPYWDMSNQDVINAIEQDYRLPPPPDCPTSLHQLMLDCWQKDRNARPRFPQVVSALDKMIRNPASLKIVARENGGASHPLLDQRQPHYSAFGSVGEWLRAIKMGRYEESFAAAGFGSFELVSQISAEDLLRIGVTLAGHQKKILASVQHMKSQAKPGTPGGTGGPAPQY

[15] = molecular target: Protein kinase C eta type (Homo sapiens) (UniProt P24723); details: Compound concentration 1000.0 nM
[16] = molecular target: Histamine H1 receptor (Homo sapiens) (UniProt P35367); details: Compound concentration 10.0 uM
Sequence of Histamine H1 receptor (Homo sapiens) (P35367 whole entry): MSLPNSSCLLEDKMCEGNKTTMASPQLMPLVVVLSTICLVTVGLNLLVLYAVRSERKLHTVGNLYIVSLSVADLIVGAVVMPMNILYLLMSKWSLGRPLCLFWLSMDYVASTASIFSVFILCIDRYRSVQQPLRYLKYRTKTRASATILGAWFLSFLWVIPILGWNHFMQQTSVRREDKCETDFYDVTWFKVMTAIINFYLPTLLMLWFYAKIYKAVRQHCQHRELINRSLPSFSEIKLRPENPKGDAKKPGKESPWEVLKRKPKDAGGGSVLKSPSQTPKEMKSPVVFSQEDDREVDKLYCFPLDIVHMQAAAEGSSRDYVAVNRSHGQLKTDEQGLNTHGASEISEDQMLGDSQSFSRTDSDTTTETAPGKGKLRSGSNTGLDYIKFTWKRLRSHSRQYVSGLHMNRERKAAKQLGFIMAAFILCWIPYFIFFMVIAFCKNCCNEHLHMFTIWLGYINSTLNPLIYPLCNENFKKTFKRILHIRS

[17] = molecular target: Alpha-1B adrenergic receptor (Homo sapiens) (UniProt P35368); details: Compound concentration 10.0 uM
Sequence of Alpha-1B adrenergic receptor (Homo sapiens) (P35368 whole entry): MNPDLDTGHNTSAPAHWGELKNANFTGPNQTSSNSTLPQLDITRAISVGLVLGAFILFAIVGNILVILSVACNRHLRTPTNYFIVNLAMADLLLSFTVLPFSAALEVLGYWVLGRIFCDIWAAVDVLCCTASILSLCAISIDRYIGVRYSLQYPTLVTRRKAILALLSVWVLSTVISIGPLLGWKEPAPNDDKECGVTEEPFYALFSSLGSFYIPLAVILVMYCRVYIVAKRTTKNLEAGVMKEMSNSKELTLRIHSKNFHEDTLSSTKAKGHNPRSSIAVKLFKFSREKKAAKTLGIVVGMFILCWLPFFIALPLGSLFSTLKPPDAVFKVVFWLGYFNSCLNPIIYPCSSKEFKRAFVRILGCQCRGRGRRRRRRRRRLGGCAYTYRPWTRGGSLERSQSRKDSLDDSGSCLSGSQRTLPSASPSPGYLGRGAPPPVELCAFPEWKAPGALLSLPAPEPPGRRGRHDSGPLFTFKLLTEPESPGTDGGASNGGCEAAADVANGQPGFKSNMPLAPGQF

[18] = molecular target: Receptor-interacting serine/threonine-protein kinase 4 (Homo sapiens) (UniProt P57078); details: Compound concentration 1000.0 nM
[19] = molecular target: Mitogen-activated protein kinase 9 (Homo sapiens) (UniProt P45984); details: Compound concentration 1000.0 nM
[20] = molecular target: 5'-AMP-activated protein kinase catalytic subunit alpha-1 (Homo sapiens) (UniProt Q13131); details: Compound concentration 1000.0 nM
Sequence of 5'-AMP-activated protein kinase catalytic subunit alpha-1 (Homo sapiens) (Q13131 whole entry, looked up): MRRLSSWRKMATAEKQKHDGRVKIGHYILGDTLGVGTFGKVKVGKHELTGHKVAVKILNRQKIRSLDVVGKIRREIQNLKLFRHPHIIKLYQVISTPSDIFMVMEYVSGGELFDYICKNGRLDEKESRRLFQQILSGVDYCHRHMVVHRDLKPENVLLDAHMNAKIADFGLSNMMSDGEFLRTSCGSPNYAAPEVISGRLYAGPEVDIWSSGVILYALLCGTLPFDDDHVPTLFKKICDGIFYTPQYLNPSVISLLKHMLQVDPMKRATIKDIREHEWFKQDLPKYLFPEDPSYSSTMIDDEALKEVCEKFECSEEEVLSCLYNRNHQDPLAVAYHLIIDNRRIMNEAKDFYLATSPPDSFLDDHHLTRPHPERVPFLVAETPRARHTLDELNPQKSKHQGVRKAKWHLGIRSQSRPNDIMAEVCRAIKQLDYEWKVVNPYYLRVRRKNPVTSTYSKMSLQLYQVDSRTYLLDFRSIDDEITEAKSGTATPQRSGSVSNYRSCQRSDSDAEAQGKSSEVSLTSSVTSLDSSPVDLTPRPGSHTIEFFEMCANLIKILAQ

[21] = molecular target: Alpha-2C adrenergic receptor (Homo sapiens) (UniProt P18825); details: Compound concentration 10.0 uM
[22] = molecular target: Bone morphogenetic protein receptor type-1B (Homo sapiens) (UniProt O00238); details: Compound concentration 1000.0 nM
Sequence of Bone morphogenetic protein receptor type-1B (Homo sapiens) (O00238 whole entry): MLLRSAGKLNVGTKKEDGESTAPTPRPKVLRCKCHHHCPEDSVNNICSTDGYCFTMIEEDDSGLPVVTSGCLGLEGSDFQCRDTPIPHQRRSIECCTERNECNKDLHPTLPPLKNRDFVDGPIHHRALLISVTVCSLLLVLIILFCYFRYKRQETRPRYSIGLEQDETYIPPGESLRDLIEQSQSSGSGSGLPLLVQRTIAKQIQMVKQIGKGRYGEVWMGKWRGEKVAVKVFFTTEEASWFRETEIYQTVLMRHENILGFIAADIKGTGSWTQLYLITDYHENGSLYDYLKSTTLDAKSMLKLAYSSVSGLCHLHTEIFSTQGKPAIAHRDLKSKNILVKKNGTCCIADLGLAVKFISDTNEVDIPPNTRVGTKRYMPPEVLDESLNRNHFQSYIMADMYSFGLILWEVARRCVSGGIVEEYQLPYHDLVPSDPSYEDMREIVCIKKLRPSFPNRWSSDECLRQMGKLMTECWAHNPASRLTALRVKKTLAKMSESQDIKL

[23] = molecular target: MAP kinase-interacting serine/threonine-protein kinase 1 (Homo sapiens) (UniProt Q9BUB5); details: Compound concentration 1000.0 nM
Sequence of MAP kinase-interacting serine/threonine-protein kinase 1 (Homo sapiens) (Q9BUB5 whole entry, looked up): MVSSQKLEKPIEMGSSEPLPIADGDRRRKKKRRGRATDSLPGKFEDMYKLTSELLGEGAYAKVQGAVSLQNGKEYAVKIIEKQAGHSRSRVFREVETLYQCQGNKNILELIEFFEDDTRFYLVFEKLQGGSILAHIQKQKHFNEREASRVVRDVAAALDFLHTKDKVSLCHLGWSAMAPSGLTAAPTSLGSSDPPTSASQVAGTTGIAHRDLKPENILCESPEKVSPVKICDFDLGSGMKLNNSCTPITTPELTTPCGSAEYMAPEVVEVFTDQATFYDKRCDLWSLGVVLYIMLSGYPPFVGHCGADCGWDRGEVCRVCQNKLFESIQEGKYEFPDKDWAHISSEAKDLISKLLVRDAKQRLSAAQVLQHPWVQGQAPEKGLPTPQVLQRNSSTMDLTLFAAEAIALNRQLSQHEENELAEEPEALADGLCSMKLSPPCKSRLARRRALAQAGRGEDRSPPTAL

[24] = molecular target: RAF proto-oncogene serine/threonine-protein kinase (Homo sapiens) (UniProt P04049); details: Compound concentration 1000.0 nM
[25] = system: Fibroblast growth factor receptor 3 (Homo sapiens), P22607 [G697C]; details: Compound concentration 1000.0 nM
[26] = molecular target: Ribosomal protein S6 kinase alpha-6 (Homo sapiens) (UniProt Q9UK32); details: Compound concentration 1000.0 nM
Sequence of Ribosomal protein S6 kinase alpha-6 (Homo sapiens) (Q9UK32 whole entry): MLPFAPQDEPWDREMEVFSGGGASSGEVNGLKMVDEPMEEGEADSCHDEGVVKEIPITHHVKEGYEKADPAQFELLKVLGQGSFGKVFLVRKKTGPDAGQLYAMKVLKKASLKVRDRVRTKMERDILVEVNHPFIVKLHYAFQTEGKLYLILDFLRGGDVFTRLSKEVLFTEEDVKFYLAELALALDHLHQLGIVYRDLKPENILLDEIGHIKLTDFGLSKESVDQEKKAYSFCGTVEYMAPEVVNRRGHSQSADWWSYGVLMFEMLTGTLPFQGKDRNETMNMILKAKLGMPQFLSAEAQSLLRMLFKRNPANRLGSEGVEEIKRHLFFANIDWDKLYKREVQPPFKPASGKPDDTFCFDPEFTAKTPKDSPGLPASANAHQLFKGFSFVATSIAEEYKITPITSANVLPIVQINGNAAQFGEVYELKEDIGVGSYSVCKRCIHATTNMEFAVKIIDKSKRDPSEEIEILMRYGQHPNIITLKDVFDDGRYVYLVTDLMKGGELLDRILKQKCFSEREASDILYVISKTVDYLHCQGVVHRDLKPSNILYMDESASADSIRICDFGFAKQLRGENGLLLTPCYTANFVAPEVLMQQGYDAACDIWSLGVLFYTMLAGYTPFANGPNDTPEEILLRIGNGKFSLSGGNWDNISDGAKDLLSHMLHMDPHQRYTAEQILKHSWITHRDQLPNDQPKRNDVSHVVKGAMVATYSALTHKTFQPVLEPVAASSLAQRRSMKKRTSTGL

[27] = molecular target: Atypical kinase COQ8A, mitochondrial (Homo sapiens) (UniProt Q8NI60); details: Compound concentration 1000.0 nM
[28] = molecular target: Mitogen-activated protein kinase 3 (Homo sapiens) (UniProt P27361); details: Compound concentration 1000.0 nM
[29] = molecular target: Calcium/calmodulin-dependent protein kinase type II subunit beta (Homo sapiens) (UniProt Q13554); details: Compound concentration 1000.0 nM
[30] = molecular target: Macrophage colony-stimulating factor 1 receptor (Homo sapiens) (UniProt P07333); details: Compound concentration 1000.0 nM
[31] = molecular target: Serine/threonine-protein kinase Nek9 (Homo sapiens) (UniProt Q8TD19); details: Compound concentration 1000.0 nM
[32] = molecular target: Cyclin-dependent kinase-like 5 (Homo sapiens) (UniProt O76039); details: Compound concentration 1000.0 nM
[33] = system: Serine/threonine-protein kinase B-raf (Homo sapiens), P15056 [V600E]; details: Compound concentration 1000.0 nM
[34] = molecular target: RAC-gamma serine/threonine-protein kinase (Homo sapiens) (UniProt Q9Y243); details: Compound concentration 1000.0 nM
[35] = molecular target: Myosin light chain kinase 2, skeletal/cardiac muscle (Homo sapiens) (UniProt Q9H1R3); details: Compound concentration 1000.0 nM
[36] = molecular target: Receptor-type tyrosine-protein kinase FLT3 (Homo sapiens) (UniProt P36888); details: Compound concentration 1000.0 nM
[37] = molecular target: Mitogen-activated protein kinase kinase kinase kinase 3 (Homo sapiens) (UniProt Q8IVH8); details: Compound concentration 1000.0 nM
[38] = system: Mast/stem cell growth factor receptor Kit (Homo sapiens), P10721 [D816V]; details: Compound concentration 1000.0 nM
[39] = molecular target: Tyrosine-protein kinase JAK3 (Homo sapiens) (UniProt P52333); details: Compound concentration 1000.0 nM

Sequence of Ribosomal protein S6 kinase alpha-4 (Homo sapiens) (O75676 whole entry, looked up): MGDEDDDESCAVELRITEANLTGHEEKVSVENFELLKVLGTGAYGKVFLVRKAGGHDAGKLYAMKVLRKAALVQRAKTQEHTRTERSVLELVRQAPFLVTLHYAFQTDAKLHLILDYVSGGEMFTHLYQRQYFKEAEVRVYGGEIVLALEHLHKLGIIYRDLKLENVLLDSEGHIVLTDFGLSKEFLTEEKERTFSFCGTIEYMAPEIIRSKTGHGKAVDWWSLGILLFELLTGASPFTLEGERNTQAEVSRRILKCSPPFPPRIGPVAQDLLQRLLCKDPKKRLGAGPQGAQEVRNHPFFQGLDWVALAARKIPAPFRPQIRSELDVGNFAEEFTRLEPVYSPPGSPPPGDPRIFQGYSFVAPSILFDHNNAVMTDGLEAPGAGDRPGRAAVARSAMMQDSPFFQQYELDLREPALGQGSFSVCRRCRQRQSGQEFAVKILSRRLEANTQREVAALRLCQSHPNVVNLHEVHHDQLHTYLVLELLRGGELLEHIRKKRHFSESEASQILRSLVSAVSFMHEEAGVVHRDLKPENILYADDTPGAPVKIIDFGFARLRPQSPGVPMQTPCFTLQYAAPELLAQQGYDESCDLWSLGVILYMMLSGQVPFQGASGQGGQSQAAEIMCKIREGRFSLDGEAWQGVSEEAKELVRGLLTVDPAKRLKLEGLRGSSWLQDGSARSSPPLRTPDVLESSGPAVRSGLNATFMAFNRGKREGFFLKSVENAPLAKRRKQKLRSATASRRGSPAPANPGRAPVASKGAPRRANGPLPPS

O=C(O)[C@H]1[C@H](Cn2nnc3ccccc3c2=O)CC[C@@H]1C(=O)c1ccc(OCCC2CCOCC2)cc1 [BAY-7598]
inactive: inhibition [1] 22.4% | residual activity [2] 97% | residual activity [3] 100% | residual activity [4] 88% | residual activity [5] 99% | residual activity [6] 69% | inhibition [7] 18% | residual activity [8] 91% | residual activity [9] 100% | residual activity [10] 100% | residual activity [11] 100% | residual activity [12] 100% | residual activity [13] 88% | residual activity [14] 96% | residual activity [15] 89% | inhibition [16] -8.85% | inhibition [17] 7.47% | residual activity [18] 80% | residual activity [19] 79% | residual activity [20] 100% | inhibition [21] 8.3% | residual activity [22] 95% | residual activity [23] 96% | residual activity [24] 91% | residual activity [25] 100% | residual activity [26] 86% | residual activity [27] 100% | residual activity [28] 94% | residual activity [29] 100% | residual activity [30] 81% | residual activity [31] 91% | residual activity [32] 85% | residual activity [33] 100% | residual activity [34] 73% | residual activity [35] 83% | residual activity [36] 96% | residual activity [37] 100% | residual activity [38] 97% | residual activity [39] 100%

O=C(O)[C@@H]1[C@@H](Cn2nnc3ccccc3c2=O)CC[C@H]1C(=O)c1ccc(OCCC2CCOCC2)cc1 [BAY-694]
inactive: inhibition [1] 21% | residual activity [2] 85% | residual activity [3] 100% | residual activity [4] 95% | residual activity [5] 100% | residual activity [6] 90% | inhibition [7] 6.4% | residual activity [8] 100% | residual activity [9] 100% | residual activity [10] 100% | residual activity [11] 81% | residual activity [12] 86% | residual activity [13] 79% | residual activity [14] 100% | residual activity [15] 100% | inhibition [16] 1.6% | inhibition [17] 6.29% | residual activity [18] 81% | residual activity [19] 100% | residual activity [20] 100% | inhibition [21] 13.1% | residual activity [22] 78% | residual activity [23] 93% | residual activity [24] 100% | residual activity [25] 92% | residual activity [26] 100% | residual activity [27] 88% | residual activity [28] 100% | residual activity [29] 100% | residual activity [30] 100% | residual activity [31] 100% | residual activity [32] 96% | residual activity [33] 100% | residual activity [34] 100% | residual activity [35] 100% | residual activity [36] 86% | residual activity [37] 100% | residual activity [38] 98% | residual activity [39] 95%
